The IC50 is the concentration that inhibits the measured activity by half.

Assay [1] concerns the target Recombinant Human NF-kappaB-Inducing Kinase (NIK/MAP3K14) (Homo sapiens, UniProt Q99558). The assay can be described thus: Inhibition of auto-phosphorylation of recombinant human NIK/MAP3K14 activity (AlphaScreen). The format is biochemical. Particulars: 5 μM ATP, 1 nM NIK, average if tested more than once. On the procedure:
Assay 1: Inhibition of Auto-Phosphorylation of Recombinant Human NF-kappaB-Inducing Kinase (NIK/MAP3K14) Activity (AlphaScreen™)
NIK/MAP3K14 auto-phosphorylation activity was measured using the AlphaScreen™ (αscreen) format (Perkin Elmer). All compounds tested were dissolved in dimethyl sulfoxide (DMSO) and further dilutions were made in assay buffer. The final DMSO concentration was 0.7% (v/v) in assays. The assay buffer was 50 mM Tris pH 7.5 containing 1 mM EGTA (ethylene glycol tetraacetic acid), 1 mM DTT (dithiothreitol), 0.1 mM Na3VO4, 5 mM MgCl2, and 0.01% Tween®20. The assays were carried out in 384 well Proxiplates (Perkin Elmer). The incubations consisted of the compound, 5 μM Adenosine-5′-triphosphate (ATP), and 1 nM NIK/MAP3K14. Incubations were initiated by the addition of GST-tagged NIK/MAP3K14 enzyme, carried out for 2 h at 25° C. and terminated by addition of stop buffer containing anti-phospho-IKK Ser176/180 antibody. Protein A Acceptor and Glutathione-Donor beads were added before reading using an EnVision Multilabel Plate Reader (Perkin Elmer). The signal obtained in the wells was normalized using high (full enzyme activity, 0.7% DMSO) and low controls (no enzyme activity, 0.7% DMSO, no ATP). IC50's were determined by fitting a sigmoidal curve to % inhibition of control versus Log10 compound concentration.
A general note: Alpha assays give light when donor and acceptor beads are brought close together.

Assay [2] relates to p-IKKa levels in L363 (NIK translocated multiple myeloma) cells. The assay can be described thus: Effect of compounds on p-IKKa levels in L363 (NIK translocated multiple myeloma) cells (AlphaLISA SureFire Ultra p-IKKa Ser176/180). It is filed as cell-based, human. Particulars: Homo sapiens, L-363, p-IKKa levels in L363 cells; average if tested more than once; read-out: Assay 2 IC50. On the procedure: Assay 2: Effect of Compounds on p-IKKa Levels in L363 (NIK Translocated Multiple Myeloma) Cells
All compounds tested were dissolved and serially diluted in DMSO, 1:3 dilution for 11 points in an Echo compatible plate. 100% DMSO was added to columns 12 and 24 of the plate to serve as high and low signal controls. This compound plate was used to spot 20 nL of compound or DMSO into a Greiner 384 well TC plate (781080). The final DMSO concentration was 0.3% (v/v) in cell assays. Human L363 cells (ATCC) were cultured in RPM11640 medium supplemented with GlutaMax, non-essential amino acids, sodium pyruvate and 10% fetal bovine serum. Cells were routinely maintained at densities of 0.2×10^6 cells per ml-2×10^6 cells per mL at 37° C. in a humidified 5% CO2 atmosphere incubator. Cells were passaged twice a week splitting back to obtain the low density. The day before the assay, cells were washed twice in HBSS (Hank's Balanced Salt Solution), resuspended in Dulbecco's Modified Eagle Medium (DMEM)+0.5% IgG and protease free BSA (Jackson Immuno Research Laboratories), +/−250 ng/ml recombinant human B-cell activating factor (BAFF/BLyS/TNFSF13B) and incubated overnight at 37° C. in a humidified 5% CO2 atmosphere (bulk stimulation with or without BAFF). The next day, the cell concentration was adjusted to 1×10^7 cells/ml in DMEM+/−250 ng/ml BAFF+/−10 μM MG132 and plated at 10 μl/well into compound or DMSO spotted 384 well TC plates. Seeded cells were incubated at 37° C. in a humidified 5% CO2 atmosphere for 6 h. After 6 h, the plates were removed from the incubator and cell lysis was achieved by the addition of 2.5 μl 5× lysis buffer containing protease and phosphatase inhibitors, followed by shaking on a plate shaker at room temperature for 15 min. At the end of this incubation, lysed cells were sequentially treated and incubated with acceptor and donor bead mixes according to the manufacturer's protocol for a 1 plate/2-incubation suspension cell assay (AlphaLISA SureFire Ultra p-IKKa (Ser 176/180) Assay Kit (Perkin Elmer). Plates were read using an EnVision Multilabel Plate Reader (Perkin Elmer). Within an experiment, a concentration response curve for each compound was run in duplicate. The signal obtained in the test wells was normalized using high signal (BAFF stimulated cells, DMSO, MG132) and low signal (unstimulated cells, DMSO) controls. To determine the IC50, a sigmoidal curve was fitted to the plot of % inhibition versus Log10 compound concentration.

Where only a bound is given, the exact number is not on record here.

Sequence of Recombinant Human NF-kappaB-Inducing Kinase (NIK/MAP3K14) (Q99558 whole entry): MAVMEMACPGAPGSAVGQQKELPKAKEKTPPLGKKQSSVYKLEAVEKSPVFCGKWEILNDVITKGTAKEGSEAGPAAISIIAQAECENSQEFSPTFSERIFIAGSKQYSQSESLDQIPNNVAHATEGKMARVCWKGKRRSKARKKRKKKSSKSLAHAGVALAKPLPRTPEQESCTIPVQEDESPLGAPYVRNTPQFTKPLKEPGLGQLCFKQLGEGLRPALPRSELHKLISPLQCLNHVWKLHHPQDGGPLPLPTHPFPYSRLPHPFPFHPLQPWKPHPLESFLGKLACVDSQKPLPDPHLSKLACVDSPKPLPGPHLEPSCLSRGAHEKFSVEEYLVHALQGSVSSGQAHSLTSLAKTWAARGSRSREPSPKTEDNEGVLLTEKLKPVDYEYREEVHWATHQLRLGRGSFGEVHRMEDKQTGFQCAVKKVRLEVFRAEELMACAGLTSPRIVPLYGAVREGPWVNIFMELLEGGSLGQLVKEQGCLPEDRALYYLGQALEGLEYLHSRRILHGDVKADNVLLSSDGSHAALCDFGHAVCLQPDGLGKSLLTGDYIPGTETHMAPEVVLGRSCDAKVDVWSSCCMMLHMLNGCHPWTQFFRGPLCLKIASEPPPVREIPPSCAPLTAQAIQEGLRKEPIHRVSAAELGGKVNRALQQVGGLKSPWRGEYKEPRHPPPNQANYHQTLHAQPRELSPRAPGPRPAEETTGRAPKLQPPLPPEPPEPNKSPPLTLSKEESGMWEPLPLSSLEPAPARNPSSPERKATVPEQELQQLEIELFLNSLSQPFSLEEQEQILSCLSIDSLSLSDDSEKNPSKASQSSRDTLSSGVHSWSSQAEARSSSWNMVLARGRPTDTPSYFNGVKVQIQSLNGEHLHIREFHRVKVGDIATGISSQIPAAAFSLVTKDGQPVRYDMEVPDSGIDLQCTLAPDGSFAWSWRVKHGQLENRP

For `CN1CC[C@@](O)(c2cncc(-c3ccn(-c4ccnc(Nc5cn(CC(F)F)nc5OC5CC5)n4)n3)c2)C1=O` (single isomer, unassigned) [Example 145, (R)-3-(5-(1-(2-((3-cyclopropoxy-1-(2,2-difluoroethyl)-1H-pyrazol-4-yl)amino)pyrimidin-4-yl)-1H-pyrazol-3-yl)pyridin-3-yl)-3-hydroxy-1-methylpyrrolidin-2-one or (S)-3-(5-(1-(2-((3-cyclopropoxy-1-(2,2-difluoroethyl)-1H-pyrazol-4-yl)amino)pyrimidin-4-yl)-1H-pyrazol-3-yl)pyridin-3-yl)-3-hydroxy-1-methylpyrrolidin-2-one], the IC50 in assay [1] and in assay [2] was less than 100 nM in each case.
With `CN1CC[C@@](O)(c2cncc(-c3ccn(-c4ccnc(Nc5cnn6ccccc56)n4)n3)c2)C1=O` (single isomer, unassigned) [Example 146, (R)-3-hydroxy-1-methyl-3-(5-(1-(2-(pyrazolo[1,5-a]pyridin-3-ylamino)pyrimidin-4-yl)-1H-pyrazol-3-yl)pyridin-3-yl)pyrrolidin-2-one or (S)-3-hydroxy-1-methyl-3-(5-(1-(2-(pyrazolo[1,5-a]pyridin-3-ylamino)pyrimidin-4-yl)-1H-pyrazol-3-yl)pyridin-3-yl)pyrrolidin-2-one], the half-maximal inhibitory concentration (IC50) in assay [1] and in assay [2] was less than 100 nM in each case.
Take `CN1CC[C@@](O)(c2cncc(-c3ccn(-c4ccnc(Nc5ccn(C)n5)n4)n3)c2)C1=O` (single isomer, unassigned) [Example 147, (R)-3-hydroxy-1-methyl-3-(5-(1-(2-((1-methyl-1H-pyrazol-3-yl)amino)pyrimidin-4-yl)-1H-pyrazol-3-yl)pyridin-3-yl)pyrrolidin-2-one or (S)-3-hydroxy-1-methyl-3-(5-(1-(2-((1-methyl-1H-pyrazol-3-yl)amino)pyrimidin-4-yl)-1H-pyrazol-3-yl)pyridin-3-yl)pyrrolidin-2-one]: the IC50 was less than 100 nM in assay [1] and 100 to 500 nM in assay [2].
With `CN1CC[C@@](O)(c2cncc(-c3ccn(-c4ccnc(Nc5cnn6cccnc56)n4)n3)c2)C1=O` (single isomer, unassigned) [Example 148, (R)-3-hydroxy-1-methyl-3-(5-(1-(2-(pyrazolo[1,5-a]pyrimidin-3-ylamino)pyrimidin-4-yl)-1H-pyrazol-3-yl)pyridin-3-yl)pyrrolidin-2-one or (S)-3-hydroxy-1-methyl-3-(5-(1-(2-(pyrazolo[1,5-a]pyrimidin-3-ylamino)pyrimidin-4-yl)-1H-pyrazol-3-yl)pyridin-3-yl)pyrrolidin-2-one], the 50% inhibitory concentration (IC50) in assay [1] is less than 100 nM; in assay [2], greater than 501 nM.
For `CN1CC[C@@](O)(c2ccnc(-c3ccn(-c4ccnc(Nc5cnn6cccnc56)n4)n3)c2)C1=O` (single isomer, unassigned) [Example 149, (R)-3-hydroxy-1-methyl-3-(2-(1-(2-(pyrazolo[1,5-a]pyrimidin-3-ylamino)pyrimidin-4-yl)-1H-pyrazol-3-yl)pyridin-4-yl)pyrrolidin-2-one or (S)-3-hydroxy-1-methyl-3-(2-(1-(2-(pyrazolo[1,5-a]pyrimidin-3-ylamino)pyrimidin-4-yl)-1H-pyrazol-3-yl)pyridin-4-yl)pyrrolidin-2-one], in that order: less than 100 nM and greater than 501 nM.
In the case of `COc1nn(CC(F)F)cc1Nc1nccc(-n2ccc(-c3cncc([C@]4(O)CCN(C)C4=O)c3)n2)n1` (single isomer, unassigned) [Example 150, (R)-3-(5-(1-(2-((1-(2,2-difluoroethyl)-3-methoxy-1H-pyrazol-4-yl)amino)pyrimidin-4-yl)-1H-pyrazol-3-yl)pyridin-3-yl)-3-hydroxy-1-methylpyrrolidin-2-one or (S)-3-(5-(1-(2-((1-(2,2-difluoroethyl)-3-methoxy-1H-pyrazol-4-yl)amino)pyrimidin-4-yl)-1H-pyrazol-3-yl)pyridin-3-yl)-3-hydroxy-1-methylpyrrolidin-2-one], the IC50 in assay [1] and in assay [2] was less than 100 nM each time.

The values above are taken from patent US20250304567A1, “PYRROLIDIONE DERIVATIVES AS INHIBITORS OF NF KAPPA B INDUCING KINASE” (priority 2022, published 2025).
